Measured values: PubChem BioAssay AID2060898 (Molecular Pharmacology Branch, DTP, NCI, 2025)
pIC50: −log10 of the molar value.

Test system: 616215-338-R-J1-PDC complex spheroid viability
Test: Anticancer human tumor 616215-338-R-J1-PDC patient-derived colon adenocarcinoma cell line growth inhibition [RAS]
Settings: for pIC50: curve of first compound; for viability, T/C: stronger effect = lower value
Method in brief: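 Tumour cells grown as complex spheroids with HUVEC endothelial cells and mesenchymal stem cells, treated with RAS pathway inhibitor combinations. Each agent spans half-log steps from near clinical Cmax, or 10 microM where Cmax is unknown.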

[1] = second compound 0.0316 µM, first compound 0.0316 µM
[2] = second compound 0.0316 µM, first compound 0.1 µM
[3] = second compound 0.0316 µM, first compound 0.316 µM
[4] = second compound 0.0316 µM, first compound 1 µM
[5] = second compound 0.1 µM, first compound 0.0316 µM
[6] = second compound 0.1 µM, first compound 0.1 µM
[7] = second compound 0.1 µM, first compound 0.316 µM
[8] = second compound 0.1 µM, first compound 1 µM
[9] = second compound 0.316 µM, first compound 0.0316 µM
[10] = second compound 0.316 µM, first compound 0.1 µM
[11] = second compound 0.316 µM, first compound 0.316 µM
[12] = second compound 0.316 µM, first compound 1 µM
[13] = second compound 1 µM, first compound 0.0316 µM
[14] = second compound 1 µM, first compound 0.1 µM
[15] = second compound 1 µM, first compound 0.316 µM
[16] = second compound 1 µM, first compound 1 µM
[17] = second compound 3.16 µM, first compound 0.0316 µM
[18] = second compound 3.16 µM, first compound 0.1 µM
[19] = second compound 3.16 µM, first compound 0.316 µM
[20] = second compound 3.16 µM, first compound 1 µM
[21] = second compound 10 µM, first compound 0.0316 µM
[22] = second compound 10 µM, first compound 0.1 µM
[23] = second compound 10 µM, first compound 0.316 µM
[24] = second compound 10 µM, first compound 1 µM
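Further: spheroids exposed to agents for seven days before viability readout.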
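Wherever viability, T/C is given: 100% = DMSO vehicle control viability.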

Compound `CCN1CCN(Cc2ccc(Nc3ncc(F)c(-c4cc(F)c5nc(C)n(C(C)C)c5c4)n3)nc2)CC1` + C#Cc1c(F)ccc2cc(O)cc(-c3ncc4c(N5CC6CCC(C5)N6)nc(OCC56CCCN5CC(F)C6)nc4c3F)c12 has a pIC50 (second compound 0.0316 µM) of less than 6.00, a pIC50 (second compound 0.1 µM) of less than 6.00 and a pIC50 (second compound 0.316 µM) of 6.06. It also gave a pIC50 (second compound 1 µM) of 6.16, a pIC50 (second compound 3.16 µM) of 6.76 and a pIC50 (second compound 10 µM) of 7.51. It also gave a viability, T/C (second compound 0.0316 µM, first compound 0.00316 µM) of 96.4%, a viability, T/C (second compound 0.0316 µM, first compound 0.01 µM) of 117% and a viability, T/C [1] of 120%. For the same compound, the viability, T/C [2] was 108%, the viability, T/C [3] was 131% and the viability, T/C [4] was 53.2%. It also gave a viability, T/C (second compound 0.1 µM, first compound 0.00316 µM) of 97.9%, a viability, T/C (second compound 0.1 µM, first compound 0.01 µM) of 110% and a viability, T/C [5] of 113%. The viability, T/C [6] was 124%, the viability, T/C [7] was 129% and the viability, T/C [8] was 50.8%. It also gave a viability, T/C (second compound 0.316 µM, first compound 0.00316 µM) of 105%, a viability, T/C (second compound 0.316 µM, first compound 0.01 µM) of 110% and a viability, T/C [9] of 121%. It also gave a viability, T/C [10] of 120%, a viability, T/C [11] of 112% and a viability, T/C [12] of 41.7%. The viability, T/C (second compound 1 µM, first compound 0.00316 µM) was 120%, the viability, T/C (second compound 1 µM, first compound 0.01 µM) was 118% and the viability, T/C [13] was 130%. For the same compound, the viability, T/C [14] was 88%, the viability, T/C [15] was 74.2% and the viability, T/C [16] was 39.7%. The viability, T/C (second compound 3.16 µM, first compound 0.00316 µM) was 90.8%, the viability, T/C (second compound 3.16 µM, first compound 0.01 µM) was 98.1% and the viability, T/C [17] was 70%. For the same compound, the viability, T/C [18] was 58.2%, the viability, T/C [19] was 44.6% and the viability, T/C [20] was 30.9%. It also gave a viability, T/C (second compound 10 µM, first compound 0.00316 µM) of 76.1%, a viability, T/C (second compound 10 µM, first compound 0.01 µM) of 58.5% and a viability, T/C [21] of 51.9%. The viability, T/C [22] was 35.5%, the viability, T/C [23] was 39.3% and the viability, T/C [24] was 23.9%.

For `CCc1c2c(nc3ccc(O)cc13)-c1cc3c(c(=O)n1C2)COC(=O)[C@]3(O)CC`, the viability, T/C (compound 0.000949 µM) was 104% [middle of 4 runs], the viability, T/C (compound 0.003 µM) was 105% [middle of 4 runs] and the viability, T/C (compound 0.03 µM) was 37.2% [middle of 4 runs]. For the same compound, the viability, T/C (compound 0.0949 µM) was 24.3% [middle of 4 runs] and the viability, T/C (compound 0.3 µM) was 16.9% [middle of 4 runs].

For `CCn1c(-c2cc(N3CCN(C)CC3)cnc2C(C)OC)c2c3cc(ccc31)-c1csc(n1)CC(NC(=O)C1CC1C)C(=O)N1CCCC(N1)C(=O)OCC(C)(C)C2` (stereo not drawn), the viability, T/C (compound 0.000949 µM) was 107% [middle of 8 runs], the viability, T/C (compound 0.003 µM) was 106% [middle of 8 runs] and the viability, T/C (compound 0.00949 µM) was 81.7% [middle of 8 runs]. For the same compound, the viability, T/C (compound 0.03 µM) was 53.7% [middle of 8 runs], the viability, T/C (compound 0.0949 µM) was 40.6% [middle of 8 runs] and the viability, T/C (compound 0.3 µM) was 37.5% [middle of 8 runs]. For the same compound, the IC50 (compound alone, run of 05/20/2024) was 41.2 nM [middle of 8 runs].

In the case of `CC1(O)CCCC1n1c(=O)c(C(F)F)cc2cnc(NC3CCN(S(C)(=O)=O)CC3)nc21` (stereo not drawn) + CCn1c(-c2cccnc2C(C)OC)c2c3cc(ccc31)N1CCOC(CC(NC(=O)C(C(C)C)N(C)C(=O)C3(F)CCN(C(=O)C#CC(C)(C)N(C)C)CC3)C(=O)N3CCCC(N3)C(=O)OCC(C)(C)C2)C1, the pIC50 (second compound 0.000949 µM) was 5.93, the pIC50 (second compound 0.003 µM) was 5.89 and the pIC50 (second compound 0.00949 µM) was 5.87. It also gave a pIC50 (second compound 0.03 µM) of 5.94, a pIC50 (second compound 0.0949 µM) of 5.93 and a pIC50 (second compound 0.3 µM) of 6.08. For the same compound, the viability, T/C (second compound 0.000949 µM, first compound 0.0316 µM) was 112%, the viability, T/C (second compound 0.000949 µM, first compound 0.1 µM) was 105% and the viability, T/C (second compound 0.000949 µM, first compound 0.316 µM) was 57.5%. The viability, T/C (second compound 0.000949 µM, first compound 1 µM) was 53.3%, the viability, T/C (second compound 0.000949 µM, first compound 3.16 µM) was 48.3% and the viability, T/C (second compound 0.000949 µM, first compound 10 µM) was 3.43%. It also gave a viability, T/C (second compound 0.003 µM, first compound 0.0316 µM) of 114%, a viability, T/C (second compound 0.003 µM, first compound 0.1 µM) of 109% and a viability, T/C (second compound 0.003 µM, first compound 0.316 µM) of 58.3%. The viability, T/C (second compound 0.003 µM, first compound 1 µM) was 56.5%, the viability, T/C (second compound 0.003 µM, first compound 3.16 µM) was 49.9% and the viability, T/C (second compound 0.003 µM, first compound 10 µM) was 3.17%. It also gave a viability, T/C (second compound 0.00949 µM, first compound 0.0316 µM) of 109%, a viability, T/C (second compound 0.00949 µM, first compound 0.1 µM) of 112% and a viability, T/C (second compound 0.00949 µM, first compound 0.316 µM) of 61.9%. It also gave a viability, T/C (second compound 0.00949 µM, first compound 1 µM) of 55.3%, a viability, T/C (second compound 0.00949 µM, first compound 3.16 µM) of 50.3% and a viability, T/C (second compound 0.00949 µM, first compound 10 µM) of 3.71%. It also gave a viability, T/C (second compound 0.03 µM, first compound 0.0316 µM) of 118%, a viability, T/C (second compound 0.03 µM, first compound 0.1 µM) of 112% and a viability, T/C (second compound 0.03 µM, first compound 0.316 µM) of 55.1%. It also gave a viability, T/C (second compound 0.03 µM, first compound 1 µM) of 50%, a viability, T/C (second compound 0.03 µM, first compound 3.16 µM) of 46% and a viability, T/C (second compound 0.03 µM, first compound 10 µM) of 4.07%. For the same compound, the viability, T/C (second compound 0.0949 µM, first compound 0.0316 µM) was 108%, the viability, T/C (second compound 0.0949 µM, first compound 0.1 µM) was 102% and the viability, T/C (second compound 0.0949 µM, first compound 0.316 µM) was 60.8%. It also gave a viability, T/C (second compound 0.0949 µM, first compound 1 µM) of 51%, a viability, T/C (second compound 0.0949 µM, first compound 3.16 µM) of 49.8% and a viability, T/C (second compound 0.0949 µM, first compound 10 µM) of 4.02%. It also gave a viability, T/C (second compound 0.3 µM, first compound 0.0316 µM) of 95.5%, a viability, T/C (second compound 0.3 µM, first compound 0.1 µM) of 74.3% and a viability, T/C (second compound 0.3 µM, first compound 0.316 µM) of 44.1%. For the same compound, the viability, T/C (second compound 0.3 µM, first compound 1 µM) was 52.6%, the viability, T/C (second compound 0.3 µM, first compound 3.16 µM) was 52.4% and the viability, T/C (second compound 0.3 µM, first compound 10 µM) was 3.81%.

Compound `NC1c2ccccc2OC12CCN(c1cnc3c(N4CCCc5ncccc54)n[nH]c3n1)CC2` (stereo not drawn) + C#Cc1c(F)ccc2cc(O)cc(-c3ncc4c(N5CC6CCC(C5)N6)nc(OCC56CCCN5CC(F)C6)nc4c3F)c12 has a pIC50 (second compound 0.0316 µM) of 5.33, a pIC50 (second compound 0.1 µM) of 5.33 and a pIC50 (second compound 0.316 µM) of 5.71. For the same compound, the pIC50 (second compound 1 µM) was 6.70, the pIC50 (second compound 3.16 µM) was 7.46 and the pIC50 (second compound 10 µM) was greater than 7.50. The viability, T/C [1] was 128%, the viability, T/C [2] was 112% and the viability, T/C [3] was 75.9%. The viability, T/C [4] was 81.6%, the viability, T/C (second compound 0.0316 µM, first compound 3.16 µM) was 67.6% and the viability, T/C (second compound 0.0316 µM, first compound 10 µM) was 29.6%. The viability, T/C [5] was 123%, the viability, T/C [6] was 105% and the viability, T/C [7] was 88.5%. It also gave a viability, T/C [8] of 61.8%, a viability, T/C (second compound 0.1 µM, first compound 3.16 µM) of 56.6% and a viability, T/C (second compound 0.1 µM, first compound 10 µM) of 43.4%. It also gave a viability, T/C [9] of 114%, a viability, T/C [10] of 84.4% and a viability, T/C [11] of 63.2%. For the same compound, the viability, T/C [12] was 55.1%, the viability, T/C (second compound 0.316 µM, first compound 3.16 µM) was 49.2% and the viability, T/C (second compound 0.316 µM, first compound 10 µM) was 32.4%. It also gave a viability, T/C [13] of 88.6%, a viability, T/C [14] of 59.5% and a viability, T/C [15] of 43%. The viability, T/C [16] was 33.8%, the viability, T/C (second compound 1 µM, first compound 3.16 µM) was 43% and the viability, T/C (second compound 1 µM, first compound 10 µM) was 26.6%. The viability, T/C [17] was 50.5%, the viability, T/C [18] was 44.5% and the viability, T/C [19] was 50.7%. The viability, T/C [20] was 39%, the viability, T/C (second compound 3.16 µM, first compound 3.16 µM) was 35.6% and the viability, T/C (second compound 3.16 µM, first compound 10 µM) was 35.7%. It also gave a viability, T/C [21] of 40%, a viability, T/C [22] of 44.4% and a viability, T/C [23] of 36.2%. For the same compound, the viability, T/C [24] was 29.5%, the viability, T/C (second compound 10 µM, first compound 3.16 µM) was 33.4% and the viability, T/C (second compound 10 µM, first compound 10 µM) was 31.6%.
